# Experimental data taken from US11752125B2, “Anti-neuroinflammatory and protective compounds in Achillea fragrantissima” (THE STATE OF ISRAEL MINISTRY OF AGRICULTURE & RURAL …, priority 2013, dated 2023).
# Tests used:
# Assay type in all cases: cell-based, rat
# [1] = system: MMP-9; test: MMP-9 transcripts in LPS-activated microglial cells (real-time PCR); conditions: LPS 4.5 ng/mL; quantitative real-time PCR
# Method: (§1) RNA was extracted by the RNeasy Plus Mini Kit (Qiagen, Hilden, Germany) according to the manufacturer's instructions. Genomic DNA was removed from the RNA samples by using 50 units of RNase-free DNaseI at 37° C. for 1 h. RNA ([…]) was converted to cDNA using the Thermo Scientific Verso cDNA kit (Thermo Fisher Scientific Inc) following the manufacturer's protocol. The cDNA was used for quantitative real-time PCR amplification with TaqMan chemistry (Applied Biosystems) using Rat MMP9, TNFα, IL1β, iNOS, COX2 pre-designed TaqMan Gene Expression Assay from Applied Biosystems (Rn00579162_m1, Rn00562055_m1, Rn00580432_m1, Rn00561646_m1, Rn01483828_m1, respectively). […] All results from three technical replicates were normalized relative to α-Tubulin (Rn01532518.g1) and GAPDH (Rn01775763.g1), respectively, and expressed as relative expression ratios calculated (relative quantity, RQ) using the comparative method and based on the data that were created by the ABI PRISM 7700 Sequence Detection System (using version 1.6 software).
# (§2) Procedure 23. Measurement of IL-1Beta, TNFalpha, iNOS, COX-2 and MMP-9 Transcripts in LPS-Activated Microglial Cells by Quantitative Real-Time PCR Analysis. • 1. […]
# Microglial cells were treated with the indicated concentrations of achillolide A, followed by stimulation with LPS (4.5 ng/mL). […] The levels of MMP-9 transcripts were measured by quantitative real-time PCR. […]
# [2] = system: microglial cells; test: Viability of microglial cells in MMP-9 experiments (crystal violet); conditions: 24 h
# Method: [formula] In MMP-9 experiments and in the cellular antioxidant activity (CAA) assays, cell viability was determined by a modification of the crystal violet assay. Microglial cells were treated with the indicated concentrations of achillolide A, followed by stimulation with LPS (4.5 ng/mL). Conditioned media were collected 24 h later and tested for MMP-9 activity by gel zymography as shown in FIG. 23 A. The zymogram represents two independent experiments. The levels of MMP-9 transcripts were measured by quantitative real-time PCR. The results from three technical replicates were normalized to β-actin and are expressed as relative quantity of MMP-9 transcripts in FIG. 23 B. The results are means±SD of one representative experiment out of three experiments. Cell viability was determined 24 h later by the crystal violet assay. Values represent the means±SEM (n=4 for each treatment).
# [3] = system: iNOS; test: iNOS transcripts in LPS-stimulated microglial cells (real-time PCR); conditions: 20 μg/mL; LPS 4.5 ng/mL, 5 h
# Method: as §1, §2
# (§3) Microglial cells were treated with 20 μg/mL of achillolide A, followed by stimulation with LPS (4.5 ng/mL). […] The results are expressed as percentages relative to LPS-stimulated cells. […]
# [4] = system: TNFα; test: TNFα transcripts in LPS-stimulated microglial cells (real-time PCR); conditions: 20 μg/mL; LPS 4.5 ng/mL, 5 h
# Method: as §1, §2, §3
# [5] = system: IL-6; test: IL-6 secretion from LPS-stimulated microglial cells (ELISA); conditions: LPS 100 ng/mL, 24 h
# Method: 2. Plate microglial cells (3.5×10^4 cells/well) on a 24-well tissue culture plate, in DMEM containing 10% FBS, 2 mM glutamine, 100 U/ml penicillin and 100 micrograms/mL streptomycin;
# Microglial cells were treated with different concentrations of TTF, followed by stimulation with LPS (100 ng/mL). After 24 h, conditioned media were collected and tested for cytokine levels by ELISA. Cell viability was determined using the crystal violet assay (FIG. 9C). Values represent the means±SEM (n=4 for each treatment).
SMILES,effect on MMP-9 transcripts [1],toxicity in MMP-9 experiments [2],effect on LPS-induced iNOS transcript levels [3],effect on LPS-induced TNFα transcript levels [4],effect on LPS-elicited IL-6 secretion [5]
C=C1CCC2=C(CO)C(=O)O[C@H]2/C=C(\C)[C@H](OC(C)=O)CC1=O [achillolide A],down-regulates,no toxicity was observed,significantly inhibited,significantly inhibited,–
"COc1cc(-c2oc3cc(OC)c(OC)c(O)c3c(=O)c2O)ccc1O [TTF, 3,5,4′-trihydroxy-6,7,3′-trimethoxyflavone]",–,–,–,–,markedly inhibited
